# Patent US20070128217A1 (priority 2003, published 2007)
# What was measured:
# [1] = system: rabbit serum obtained by immunizing a rabbit with the SARS-CoV strain Frankfurt 1; format: binding; parameters: Binding of a rabbit serum to linear peptides / Binding of a rabbit serum to looped peptides / Rabbit serum linear peptides / Rabbit serum looped peptides / Binding of a rabbit serum to linear peptides of protein N of SARS-CoV Urbani (Rabbit serum linear peptides) / Binding of a rabbit serum to looped/cyclic peptides of protein N of SARS-CoV Urbani (Rabbit serum looped peptides): unit not given here
# [2] = system: recombinant human anti-SARS-CoV antibody 03-018; format: binding; parameters: Binding of antibody 03-018 to linear peptides of the N protein of SARS-CoV Urbani / Binding of antibody 03-018 to looped/cyclic peptides of the N protein of SARS-CoV Urbani: unit not given here
# [3] = system: antibodies in sera from SARS patients (sera 1a, 1b, 2, 6, 37, 62, London, SARS-yellow, SARS-green); format: binding, human; parameters: Binding of serum 6 to linear peptides of protein X1 of SARS-CoV Urbani / Binding of serum 37 to linear peptides of protein X1 of SARS-CoV Urbani / Binding of serum 6 to looped/cyclic peptide (PEPSCAN-ELISA) / Binding of serum 37 to looped/cyclic peptide (PEPSCAN-ELISA) / Binding of serum 37 to looped/cyclic peptides of protein X1 of SARS-CoV Urbani / Binding of serum 6 to linear peptides of protein X2 / Binding of serum 37 to linear peptides of protein X2 / Binding of serum 37 to looped/cyclic peptides of protein X2 of SARS-CoV Urbani / Binding of serum 6 to linear peptides of protein M of SARS-CoV Urbani / Binding of serum 37 to linear peptides of protein M of SARS-CoV Urbani / Binding of serum 6 to looped/cyclic peptides of protein M of SARS-CoV Urbani / Binding of serum 37 to looped/cyclic peptides of protein M of SARS-CoV Urbani / Binding of serum 6 to linear peptides of protein X3 of SARS-CoV Urbani / Binding of serum 37 to linear peptides of protein X3 of SARS-CoV Urbani / Binding of serum 37 to looped/cyclic peptides of protein X3 of SARS-CoV Urbani / Binding of serum 6 to linear peptides of protein X4 of SARS-CoV Urbani / Binding of serum 37 to linear peptides of protein X4 of SARS-CoV Urbani / Binding of serum 37 to looped/cyclic peptides of protein X4 of SARS-CoV Urbani / Binding of serum 6 to linear peptides of protein X5 of SARS-CoV Urbani / Binding of serum 37 to linear peptides of protein X5 of SARS-CoV Urbani / Binding of serum 37 to looped/cyclic peptides of protein X5 of SARS-CoV Urbani / Binding of serum 6 to linear peptides of protein N of SARS-CoV Urbani / Binding of serum 37 to linear peptides of protein N of SARS-CoV Urbani / Binding of serum 6 to linear peptide (PEPSCAN-ELISA) / Binding of serum 1a to looped/cyclic peptides of protein N of SARS-CoV Urbani / Binding of serum 1b to looped/cyclic peptides of protein N of SARS-CoV Urbani / Binding of serum 2 to looped/cyclic peptides of protein N of SARS-CoV Urbani / Binding of serum 6 to looped/cyclic peptides of protein N of SARS-CoV Urbani / Binding of serum 37 to looped/cyclic peptides of protein N of SARS-CoV Urbani / Binding of serum 62 to looped/cyclic peptides of protein N of SARS-CoV Urbani / Binding of serum London to looped/cyclic peptides of protein N of SARS-CoV Urbani / Binding of serum SARS-green to looped/cyclic peptides of protein N of SARS-CoV Urbani: unit not given here
# [4] = system: control sera (pooled serum of ten healthy LUMC hospital workers; commercial negative donor pooled serum from the Dutch bloodbank); format: binding, human; parameters: Binding of Control serum LUMC to linear peptides / Binding of Control serum Blood-bank to linear peptides / Binding of Control serum LUMC to looped peptides / Binding of Control Serum Blood-Bank to Looped peptides / Binding of Control serum LUMC to linear peptides of the protein M of SARS-CoV Urbani / Binding of Control serum Blood-bank to linear peptides of the protein M of SARS-CoV Urbani / Binding of Control serum LUMC to looped peptides of the protein M of SARS-CoV Urbani / Binding of Control Serum Blood-Bank to Looped peptides of the protein M of SARS-CoV Urbani: unit not given here
sequence,measurement,setting,value
ATVLQLPQGTTLPKG,Binding of a rabbit serum to linear peptides of protein N of SARS-CoV Urbani (Rabbit serum linear peptides),[1],0.2
same,Binding of a rabbit serum to looped/cyclic peptides of protein N of SARS-CoV Urbani (Rabbit serum looped peptides),[1],0.3
same,Binding of antibody 03-018 to linear peptides of the N protein of SARS-CoV Urbani,[2],0.1
same,Binding of antibody 03-018 to looped/cyclic peptides of the N protein of SARS-CoV Urbani,[2],0.2
DDKDPQFKDNVILLN,Binding of a rabbit serum to linear peptides of protein N of SARS-CoV Urbani (Rabbit serum linear peptides),[1],0.1
same,Binding of a rabbit serum to looped/cyclic peptides of protein N of SARS-CoV Urbani (Rabbit serum looped peptides),[1],0.4
same,Binding of antibody 03-018 to linear peptides of the N protein of SARS-CoV Urbani,[2],0.1
same,Binding of antibody 03-018 to looped/cyclic peptides of the N protein of SARS-CoV Urbani,[2],0.3
DKDPQFKDNVILLNK,Binding of a rabbit serum to linear peptides of protein N of SARS-CoV Urbani (Rabbit serum linear peptides),[1],0.1
same,Binding of a rabbit serum to looped/cyclic peptides of protein N of SARS-CoV Urbani (Rabbit serum looped peptides),[1],0.5
same,Binding of antibody 03-018 to linear peptides of the N protein of SARS-CoV Urbani,[2],0.1
same,Binding of antibody 03-018 to looped/cyclic peptides of the N protein of SARS-CoV Urbani,[2],0.4
GSSRGNSPARMASGG,Binding of serum 1a to linear peptide (PEPSCAN-ELISA),[3],0.4
same,Binding of serum 1a to looped/cyclic peptides of protein N of SARS-CoV Urbani,[3],0.4
same,Binding of serum 1b to linear peptide (PEPSCAN-ELISA),[3],0.2
same,Binding of serum 1b to looped/cyclic peptides of protein N of SARS-CoV Urbani,[3],0.3
same,Binding of serum 2 to linear peptide (PEPSCAN-ELISA),[3],0.2
same,Binding of serum 2 to looped/cyclic peptides of protein N of SARS-CoV Urbani,[3],0.7
same,Binding of serum 6 to linear peptide (PEPSCAN-ELISA),[3],0.2
same,Binding of serum 6 to looped/cyclic peptides of protein N of SARS-CoV Urbani,[3],0.4
same,Binding of serum 37 to linear peptide (PEPSCAN-ELISA),[3],0.5
same,Binding of serum 37 to looped/cyclic peptides of protein N of SARS-CoV Urbani,[3],0.6
same,Binding of serum 62 to linear peptide (PEPSCAN-ELISA),[3],0.7
same,Binding of serum 62 to looped/cyclic peptides of protein N of SARS-CoV Urbani,[3],0.6
same,Binding of serum London to linear peptide (PEPSCAN-ELISA),[3],0.5
same,Binding of serum London to looped/cyclic peptides of protein N of SARS-CoV Urbani,[3],0.9
same,Binding of serum SARS-green to linear peptide (PEPSCAN-ELISA),[3],0.8
same,Binding of serum SARS-green to looped/cyclic peptides of protein N of SARS-CoV Urbani,[3],0.7
same,Binding of serum SARS-yellow to linear peptide (PEPSCAN-ELISA),[3],0.7
same,Binding of serum SARS-yellow to looped/cyclic peptides of protein N of SARS-CoV Urbani,[3],0.5
same,Recognition of the peptide by the rabbit serum,[1],recognized
same,Binding of antibody 03-018 to linear peptides of the N protein of SARS-CoV Urbani,[2],0.1
same,Binding of antibody 03-018 to looped/cyclic peptides of the N protein of SARS-CoV Urbani,[2],0.2
TVLQLPQGTTLPKGF,Binding of a rabbit serum to linear peptides of protein N of SARS-CoV Urbani (Rabbit serum linear peptides),[1],0.3
same,Binding of a rabbit serum to looped/cyclic peptides of protein N of SARS-CoV Urbani (Rabbit serum looped peptides),[1],1.2
same,Binding of antibody 03-018 to linear peptides of the N protein of SARS-CoV Urbani,[2],0.1
same,Binding of antibody 03-018 to looped/cyclic peptides of the N protein of SARS-CoV Urbani,[2],0.3
YTQSTALQELLIQQW,Binding of serum 1a to linear peptides of protein X2,[3],0.6
same,Binding of serum 1a to looped/cyclic peptides of protein X2 of SARS-CoV Urbani,[3],0.6
same,Binding of serum 1b to linear peptides of protein X2,[3],0.5
same,Binding of serum 1b to looped/cyclic peptides of protein X2 of SARS-CoV Urbani,[3],0.5
same,Binding of serum 2 to linear peptides of protein X2,[3],0.4
same,Binding of serum 2 to looped/cyclic peptides of protein X2 of SARS-CoV Urbani,[3],0.5
same,Binding of serum 6 to linear peptides of protein X2,[3],0.4
same,Binding of serum 6 to looped/cyclic peptides of protein X2 of SARS-CoV Urbani,[3],0.2
same,Binding of serum 37 to linear peptides of protein X2,[3],0.5
same,Binding of serum 37 to looped/cyclic peptides of protein X2 of SARS-CoV Urbani,[3],0.4
same,Binding of serum 62 to linear peptides of protein X2,[3],0.6
same,Binding of serum 62 to looped/cyclic peptides of protein X2 of SARS-CoV Urbani,[3],0.6
same,Binding of serum London to linear peptides of protein X2,[3],0.5
same,Binding of serum London to looped/cyclic peptides of protein X2 of SARS-CoV Urbani,[3],0.2
same,Binding of serum SARS-green to linear peptides of protein X2,[3],0.6
same,Binding of serum SARS-green to looped/cyclic peptides of protein X2 of SARS-CoV Urbani,[3],0.3
same,Binding of serum SARS-yellow to linear peptides of protein X2,[3],0.6
same,Binding of serum SARS-yellow to looped/cyclic peptides of protein X2 of SARS-CoV Urbani,[3],0.3
same,Binding of a rabbit serum to linear peptides,[1],0.3
same,Binding of a rabbit serum to looped peptides,[1],0.3
same,Binding of Control Serum Blood-Bank to Looped peptides,[4],0.6
same,Binding of Control serum Blood-bank to linear peptides,[4],0.5
same,Binding of Control serum LUMC to linear peptides,[4],0.4
same,Binding of Control serum LUMC to looped peptides,[4],0.6
YVVVHGYFTEVYYQL,Binding of serum 1a to linear peptides of protein X1 of SARS-CoV Urbani,[3],0.7
same,Binding of serum 1a to looped/cyclic peptides of protein X1 of SARS-CoV Urbani,[3],0.6
same,Binding of serum 1b to linear peptides of protein X1 of SARS-CoV Urbani,[3],0.6
same,Binding of serum 1b to looped/cyclic peptides of protein X1 of SARS-CoV Urbani,[3],0.5
same,Binding of serum 2 to linear peptides of protein X1 of SARS-CoV Urbani,[3],0.5
same,Binding of serum 2 to looped/cyclic peptides of protein X1 of SARS-CoV Urbani,[3],0.5
same,Binding of serum 6 to linear peptides of protein X1 of SARS-CoV Urbani,[3],0.3
same,Binding of serum 6 to looped/cyclic peptides of protein X1 of SARS-CoV Urbani,[3],0.3
same,Binding of serum 37 to linear peptides of protein X1 of SARS-CoV Urbani,[3],0.5
same,Binding of serum 37 to looped/cyclic peptides of protein X1 of SARS-CoV Urbani,[3],0.4
same,Binding of serum 62 to linear peptides of protein X1 of SARS-CoV Urbani,[3],0.4
same,Binding of serum 62 to looped/cyclic peptides of protein X1 of SARS-CoV Urbani,[3],0.4
same,Binding of serum London to linear peptides of protein X1 of SARS-CoV Urbani,[3],0.2
same,Binding of serum London to looped/cyclic peptides of protein X1 of SARS-CoV Urbani,[3],0.2
same,Binding of serum SARS-green to linear peptides of protein X1 of SARS-CoV Urbani,[3],0.1
same,Binding of serum SARS-green to looped/cyclic peptides of protein X1 of SARS-CoV Urbani,[3],0.2
same,Binding of serum SARS-yellow to linear peptides of protein X1 of SARS-CoV Urbani,[3],0.2
same,Binding of serum SARS-yellow to looped/cyclic peptides of protein X1 of SARS-CoV Urbani,[3],0.4
same,Binding of a rabbit serum to linear peptides,[1],0.1
same,Binding of a rabbit serum to looped peptides,[1],0.5
same,Binding of Control Serum Blood-Bank to Looped peptides,[4],0.5
same,Binding of Control serum Blood-bank to linear peptides,[4],0.4
same,Binding of Control serum LUMC to linear peptides,[4],1.0
same,Binding of Control serum LUMC to looped peptides,[4],0.9
